Several values for one entry are separate records, joined by “and”; a condition that tells them apart may be missing. Identical values can stand only once. Numbers after ± are expanded uncertainties.
Conditions: Liquid; for mass density: Vibrating tube method

CCCC[n+]1cccc(C)c1.O=S(=O)([N-]S(=O)(=O)C(F)(F)F)C(F)(F)F
Conditions | viscosity
278.15 K, 101.33 kPa, Concentric cylinders viscometry | 201 ± 4 mPa·s
283.15 K, 101.33 kPa, Concentric cylinders viscometry | 146.3 ± 2.4 mPa·s
288.13 K, 101.33 kPa, Vibrating wire viscometry | 107.09 ± 2.1 mPa·s
288.15 K, 101.33 kPa, Concentric cylinders viscometry | 109.5 ± 1.5 mPa·s
292.95 K, 101.33 kPa, Vibrating wire viscometry | 83.24 ± 1.4 mPa·s
293.15 K, 101.33 kPa, Concentric cylinders viscometry | 84.1 ± 1 mPa·s
296.3 K, 101.33 kPa, Vibrating wire viscometry | 71.15 ± 1.1 mPa·s
298.15 K, 101.33 kPa, Concentric cylinders viscometry | 65.6 ± 0.7 mPa·s
298.25 K, 101.33 kPa, Vibrating wire viscometry | 65 ± 1 mPa·s and 64.91 ± 1 mPa·s
300.55 K, 101.33 kPa, Vibrating wire viscometry | 58.21 ± 0.89 mPa·s
302.98 K, 101.33 kPa, Vibrating wire viscometry | 52.92 ± 0.8 mPa·s
303.15 K, 101.33 kPa, Concentric cylinders viscometry | 52.31 ± 0.53 mPa·s
303.15 K, 10000 kPa, Falling or rolling sphere viscometry | 58.6 ± 2.1 mPa·s
303.15 K, 15000 kPa, Falling or rolling sphere viscometry | 62.3 ± 2.2 mPa·s
303.15 K, 25000 kPa, Falling or rolling sphere viscometry | 70.4 ± 2.6 mPa·s
303.15 K, 50000 kPa, Falling or rolling sphere viscometry | 94.7 ± 3.8 mPa·s
303.15 K, 75000 kPa, Falling or rolling sphere viscometry | 126.3 ± 5.7 mPa·s
307.84 K, 101.33 kPa, Vibrating wire viscometry | 43.69 ± 0.68 mPa·s
308.15 K, 101.33 kPa, Concentric cylinders viscometry | 42.36 ± 0.44 mPa·s
310.19 K, 101.33 kPa, Vibrating wire viscometry | 40.27 ± 0.62 mPa·s
313.15 K, 101.33 kPa, Concentric cylinders viscometry | 35.01 ± 0.37 mPa·s
313.15 K, 10000 kPa, Falling or rolling sphere viscometry | 40.1 ± 1.4 mPa·s
313.15 K, 15000 kPa, Falling or rolling sphere viscometry | 42.3 ± 1.5 mPa·s
313.15 K, 25000 kPa, Falling or rolling sphere viscometry | 47.2 ± 1.7 mPa·s
313.15 K, 50000 kPa, Falling or rolling sphere viscometry | 61.7 ± 2.2 mPa·s
313.15 K, 75000 kPa, Falling or rolling sphere viscometry | 80.5 ± 3.1 mPa·s
313.15 K, 100000 kPa, Falling or rolling sphere viscometry | 104.9 ± 4.4 mPa·s
318.15 K, 101.33 kPa, Concentric cylinders viscometry | 29.01 ± 0.3 mPa·s
323.15 K, 101.33 kPa, Concentric cylinders viscometry | 24.47 ± 0.26 mPa·s
323.15 K, 10000 kPa, Falling or rolling sphere viscometry | 27.2 ± 1 mPa·s
323.15 K, 15000 kPa, Falling or rolling sphere viscometry | 28.7 ± 1 mPa·s
323.15 K, 25000 kPa, Falling or rolling sphere viscometry | 32 ± 1.2 mPa·s
323.15 K, 50000 kPa, Falling or rolling sphere viscometry | 41.6 ± 1.5 mPa·s
323.15 K, 75000 kPa, Falling or rolling sphere viscometry | 53.5 ± 1.9 mPa·s
323.15 K, 100000 kPa, Falling or rolling sphere viscometry | 68.5 ± 2.5 mPa·s
328.15 K, 101.33 kPa, Concentric cylinders viscometry | 20.87 ± 0.22 mPa·s
333.15 K, 101.33 kPa, Concentric cylinders viscometry | 17.97 ± 0.19 mPa·s
333.15 K, 10000 kPa, Falling or rolling sphere viscometry | 20 ± 0.7 mPa·s
333.15 K, 15000 kPa, Falling or rolling sphere viscometry | 20.8 ± 0.7 mPa·s
333.15 K, 25000 kPa, Falling or rolling sphere viscometry | 22.8 ± 0.8 mPa·s
333.15 K, 50000 kPa, Falling or rolling sphere viscometry | 29.2 ± 1.1 mPa·s
333.15 K, 75000 kPa, Falling or rolling sphere viscometry | 37.2 ± 1.3 mPa·s
333.15 K, 100000 kPa, Falling or rolling sphere viscometry | 46.3 ± 1.7 mPa·s
338.15 K, 101.33 kPa, Concentric cylinders viscometry | 15.61 ± 0.16 mPa·s
343.15 K, 101.33 kPa, Concentric cylinders viscometry | 13.68 ± 0.14 mPa·s
343.15 K, 10000 kPa, Falling or rolling sphere viscometry | 14.8 ± 0.5 mPa·s
343.15 K, 15000 kPa, Falling or rolling sphere viscometry | 15.7 ± 0.6 mPa·s
343.15 K, 25000 kPa, Falling or rolling sphere viscometry | 17.4 ± 0.6 mPa·s
343.15 K, 50000 kPa, Falling or rolling sphere viscometry | 21.7 ± 0.8 mPa·s
343.15 K, 75000 kPa, Falling or rolling sphere viscometry | 26.7 ± 1 mPa·s
343.15 K, 100000 kPa, Falling or rolling sphere viscometry | 33.2 ± 1.2 mPa·s
348.15 K, 101.33 kPa, Concentric cylinders viscometry | 12.07 ± 0.13 mPa·s
353.15 K, 101.33 kPa, Concentric cylinders viscometry | 10.78 ± 0.11 mPa·s
353.15 K, 10000 kPa, Falling or rolling sphere viscometry | 11.5 ± 0.4 mPa·s
353.15 K, 15000 kPa, Falling or rolling sphere viscometry | 12.1 ± 0.4 mPa·s
353.15 K, 25000 kPa, Falling or rolling sphere viscometry | 13.2 ± 0.5 mPa·s
353.15 K, 50000 kPa, Falling or rolling sphere viscometry | 16.4 ± 0.6 mPa·s
353.15 K, 75000 kPa, Falling or rolling sphere viscometry | 20.2 ± 0.7 mPa·s
353.15 K, 100000 kPa, Falling or rolling sphere viscometry | 24.8 ± 0.9 mPa·s
358.15 K, 101.33 kPa, Concentric cylinders viscometry | 9.59 ± 0.1 mPa·s
363.15 K, 101.33 kPa, Concentric cylinders viscometry | 8.63 ± 0.09 mPa·s
368.15 K, 101.33 kPa, Concentric cylinders viscometry | 7.8 ± 0.08 mPa·s
373.15 K, 101.33 kPa, Concentric cylinders viscometry | 7.09 ± 0.08 mPa·s

101.33 kPa
Conditions | mass density [kg/m3]
278.15 K | 1431.3 ± 1.1
283.15 K | 1426.4 ± 1.1
288.15 K | 1421.6 ± 1.1
293.15 K | 1416.9 ± 1.1
298.15 K | 1412.3 ± 1.1
303.15 K | 1407.8 ± 1.1
308.15 K | 1403.2 ± 1.1
313.15 K | 1398.7 ± 1.1
318.15 K | 1394.3 ± 1.1
323.15 K | 1389.8 ± 1.1
328.15 K | 1385.4 ± 1.1
333.15 K | 1380.9 ± 1.1
338.15 K | 1376.4 ± 1.1
343.15 K | 1372 ± 1.1
348.15 K | 1367.5 ± 1.1
353.15 K | 1362.9 ± 1.1
358.15 K | 1358.3 ± 1.1
363.15 K | 1353.9 ± 1.1
368.15 K | 1349.6 ± 1.1
373.15 K | 1345.4 ± 1.1

CCOS(=O)(=O)[O-].CCn1cc[n+](C)c1 [1-ethyl-3-methylimidazolium ethyl sulfate]
101.33 kPa
Conditions | viscosity
278.15 K, Concentric cylinders viscometry | 329 ± 8.5 mPa·s
283.15 K, Concentric cylinders viscometry | 234.5 ± 5.2 mPa·s
288.15 K, Concentric cylinders viscometry | 172.2 ± 3.3 mPa·s
293.15 K, Concentric cylinders viscometry | 130.1 ± 2.1 mPa·s
298.15 K, Concentric cylinders viscometry | 100 ± 1.4 mPa·s
298.52 K, Vibrating wire viscometry | 97.32 ± 1.8 mPa·s and 98.21 ± 1.9 mPa·s
303.15 K, Concentric cylinders viscometry | 78.66 ± 0.99 mPa·s
303.34 K, Vibrating wire viscometry | 76.57 ± 1.3 mPa·s
303.38 K, Vibrating wire viscometry | 76.99 ± 1.3 mPa·s
303.64 K, Vibrating wire viscometry | 76.57 ± 1.3 mPa·s
308.15 K, Concentric cylinders viscometry | 62.99 ± 0.73 mPa·s
308.21 K, Vibrating wire viscometry | 61.5 ± 0.99 mPa·s
313.15 K, Concentric cylinders viscometry | 51.59 ± 0.58 mPa·s
313.23 K, Vibrating wire viscometry | 51.09 ± 0.81 mPa·s
313.24 K, Vibrating wire viscometry | 50.47 ± 0.8 mPa·s
318.15 K, Concentric cylinders viscometry | 42.36 ± 0.49 mPa·s
318.43 K, Vibrating wire viscometry | 41.55 ± 0.67 mPa·s
322.6 K, Vibrating wire viscometry | 36.51 ± 0.59 mPa·s
323.02 K, Vibrating wire viscometry | 35.9 ± 0.58 mPa·s
323.15 K, Concentric cylinders viscometry | 35.43 ± 0.41 mPa·s
328.15 K, Concentric cylinders viscometry | 29.98 ± 0.35 mPa·s
333.15 K, Concentric cylinders viscometry | 25.64 ± 0.3 mPa·s
338.15 K, Concentric cylinders viscometry | 22.13 ± 0.26 mPa·s
343.15 K, Concentric cylinders viscometry | 19.27 ± 0.22 mPa·s
348.15 K, Concentric cylinders viscometry | 16.91 ± 0.2 mPa·s
353.15 K, Concentric cylinders viscometry | 15.03 ± 0.17 mPa·s
358.15 K, Concentric cylinders viscometry | 13.3 ± 0.15 mPa·s
363.15 K, Concentric cylinders viscometry | 11.9 ± 0.14 mPa·s
368.15 K, Concentric cylinders viscometry | 10.71 ± 0.12 mPa·s
373.15 K, Concentric cylinders viscometry | 9.69 ± 0.11 mPa·s

101.33 kPa
Conditions | mass density [kg/m3]
278.15 K | 1251.2 ± 2.4
283.15 K | 1247.3 ± 2.4
288.15 K | 1243.7 ± 2.4
293.15 K | 1240.1 ± 2.4
298.15 K | 1236.7 ± 2.4
303.15 K | 1233.3 ± 2.4
308.15 K | 1229.9 ± 2.4
313.15 K | 1226.5 ± 2.4
318.15 K | 1223.2 ± 2.4
323.15 K | 1219.9 ± 2.4
328.15 K | 1216.6 ± 2.4
333.15 K | 1213.4 ± 2.4
338.15 K | 1210.2 ± 2.4
343.15 K | 1206.9 ± 2.4
348.15 K | 1203.6 ± 2.4
353.15 K | 1200.1 ± 2.4
358.15 K | 1196.6 ± 2.4
363.15 K | 1193.4 ± 2.4
368.15 K | 1190.5 ± 2.4
373.15 K | 1187.4 ± 2.4

— the NIST ThermoML archive (doi:10.1016/j.jct.2018.01.025)
